Laboratory results as given in publication PMC8591608, “DNDI-6148: A Novel Benzoxaborole Preclinical Candidate for the Treatment of Visceral Leishmaniasis” (Journal of Medicinal Chemistry, 2021).

Experiments:
L. donovani [1] = test: Intramacrophage L. donovani assay; format: cell-based; conditions: Leishmania donovani
Method: (§1) L. infantum (MHOM/MA/67/ITMAP263) and L. donovani (MHOM/ET/67/L82) were maintained in the golden (Syrian) hamster (Mesocricetus auratus). Ex vivo amastigotes were collected from the spleen of an infected donor hamster using two centrifugation purification steps: 230g for 10 min, keeping the supernatant layer, and 4100g for 30 min, keeping the pellet. The spleen parasite burden was assessed using the Stauber technique.[25] For in vitro assays, the inoculum was prepared in RPMI-1640 medium, supplemented with 200 mM L-glutamine, 16.5 mM NaHCO3, and 5% inactivated fetal calf serum. For the in vivo model, an infection inoculum containing 2 × 10^7 amastigotes/100 μL was prepared in phosphate-buffered saline (PBS).
The assay was performed in sterile 96-well microtiter plates, each well containing 10 μL of the compound dilution and 190 μL of the PMM/amastigote inoculum (3 × 10^4 cells/4.5 × 10^5 parasites per well). Parasite multiplication was compared to untreated infected controls (100% growth) and uninfected controls (0% growth). After five-day incubation, total parasite burdens were microscopically assessed after staining the cells with a 10% Giemsa solution. The results were expressed as a percentage reduction in parasite burden compared to untreated control wells. EC50 values were determined using an extended dose range (2-fold compound dilutions, 8-point concentration curve). Miltefosine was used as the reference drug.[26] For selected compounds, this assay format was also run using the L. donovani inoculum.

PMM cytotoxicity assay = format: cell-based; conditions: mouse, primary peritoneal mouse macrophages (PMM)
Procedure, shortened: (§2)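 PMM (harvested 2 days after 2% potato starch peritoneal stimulation) or MRC5SV2 human lung fibroblasts at 3 × 10^4 cells/mL were exposed to compound for three days at 37 °C, 5% CO2. Viability was read by resazurin fluorescence (λex 550, λem 590 nm) after 4 h, as % growth reduction vs untreated controls.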

MRC5 cytotoxicity assay = format: cell-based; conditions: human, MRC5SV2 cells (human embryonic lung fibroblasts); Table 5; geometric mean of at least two independent tests
Procedure, shortened: as §2

[2] = Liver microsome stability, human; format: in vitro ADME; conditions: for microsomal CLint at 1 μM: human liver microsomes, pH 7.4, Table 5, read-out: HLM Clint
Procedure, shortened: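 Compounds at 1 μM incubated at 37 °C with liver microsomes (Balb/c mouse, golden Syrian hamster, Beagle dog, human) plus NADPH regenerating system in 100 mM phosphate buffer pH 7.4, 0.4 or 0.8 mg/mL protein. Samples taken from 0 up to 60, 90 or 120 min, quenched in cold methanol and analysed by LC-MS/MS.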

[3] = Liver microsome stability, hamster; format: in vitro ADME; conditions: golden (Syrian), hamster liver microsomes, pH 7.4, Table 5, read-out: HamLM Clint
Method: Tests were performed by WuXi AppTec, China. Test compounds (at 1 μM) or positive controls (testosterone, propafenone, and diclofenac) were incubated at 37 °C with liver microsomes from Balb/c mouse, golden (Syrian) hamster, Sprague-Dawley rat, Beagle dog, or human in the presence of a NADPH regenerating system and phosphate buffer (100 mM, pH 7.4) at 0.4 or 0.8 mg/mL microsomal protein. The samples were removed at time intervals from 0 to 60, 90, or 120 min and immediately mixed with cold methanol supplemented or not with acid (3% formic acid) and centrifuged prior to analysis by LC-MS/MS using tolbutamide or propranolol as internal standards.

L. infantum = L. infantum hamster model of VL; format: in vivo; conditions: for reduction in parasite burden, bone marrow, 10 days / reduction in parasite burden, liver, 10 days / reduction in parasite burden, spleen, 10 days: 25 mg/kg BID p.o. for 10 days
Method: as §1
Female golden hamsters for the in vivo model of visceral leishmaniasis were purchased from Janvier, France (body weight 80–100 g). This study using laboratory rodents was carried out in strict accordance with all mandatory guidelines (EU directives, including the Revised Directive 2010/63/EU on the protection of Animals used for Scientific Purposes that came into force on 01/01/2013, and the declaration of Helsinki in its latest version) and was approved by the ethical committee of the University of Antwerp, Belgium (UA-ECD 2011-74). Female golden hamsters for the pharmacokinetic study were purchased from Vital River, Beijing, China. This study was conducted following institutional review and in accordance with institutional and national guidelines at WuXi AppTec (the Institutional Animal Care and Use Committee (IACUC)). Balb/c mice for the in vivo model of visceral leishmaniasis (LSHTM) were purchased from Charles River, U.K., and related studies were conducted under license PPL 70/8427 from the U.K. Home Office.
Female golden hamsters were randomly allocated to experimental groups of six animals each, based on body weight. At the start of the experiment (Day 0), each animal was infected with L. infantum or L. donovani inoculum, delivered by intracardial injection. Six hamsters were assigned to the vehicle-treated, infected control group. Six hamsters were assigned per group (1 group/compound) for the evaluation of compound and miltefosine. […] At Day 35 (10 days after the final oral dose), all animals were euthanized and autopsies were conducted. The study evaluated the following parameters. • 1. Adverse effects: all animals were observed daily for the occurrence/presence of adverse effects. • 2. Body weight: all animals were weighed twice per week to monitor general health. • 3. Parasite burden: amastigote burdens in each target organ (liver, spleen, and bone marrow) were determined at Day 35. The organs of individual animals were weighed (except for bone marrow). Impression smears were stained with Giemsa for microscopic examination of the total amastigote burden, defined as the mean number of amastigotes per cell multiplied by the number of cells counted (minimum 500 nuclei); the results were expressed as a percentage reduction in amastigote burden compared to vehicle-treated, infected control animals.

L. donovani [4] = test: L. donovani mouse model of VL; format: in vivo
Method: Female BALB/c mice were infected with 2 × 10^7L. donovani amastigotes/0.2 mL i.v. harvested from the spleen of an infected donor RAG1B6 mouse (LSHTM). After 7 days, the mice were treated with miltefosine or DNDI-6148 for 5 consecutive days. Five days after the final dose, mice were humanely killed, liver and spleens were dissected and weighed, and impression smears were made for the calculation of parasite burden (Stauber equation).[25]

[5] = 14-day exploratory toxicology study in rats; conditions: 14-day study
[6] = Table 2, geometric mean of at least three independent assays
[7] = Table 5, geometric mean of at least two independent tests
[8] = Table 6, geometric mean of at least two independent tests

Which EC50 (L. donovani [1]; [6]) does the source give for Cc1c(C(=O)Nc2ccc3c(c2)B(O)OC3)nnn1-c1ccccn1 [Compound 23, N-(1-Hydroxy-1,3-dihydrobenzo[c][1,2]oxaborol-6-yl)-5-methyl-1-(pyridin-2-yl)-1H-1,2,3-triazole-4-carboxamide] here?
Its EC50 is 1.4 µM.

What about the EC50 at 3 days (PMM cytotoxicity assay; [6]) of the same molecule?
The EC50 at 3 days was greater than 64 µM.

What about the CC50 at 3 days (PMM cytotoxicity assay; [7]) of the same molecule?
Its CC50 at 3 days is greater than 64 µM.

What about the CC50 at 3 days (MRC5 cytotoxicity assay) of the same molecule?
Its CC50 at 3 days is greater than 64 µM.

What about the “microsome Clint” value ([2]; Table 10) of the same molecule?
Its value is less than 11.9 μL/min/mg protein.

And the microsomal CLint at 1 μM [2]?
The microsomal CLint at 1 μM was less than 11.9 µL/min/mg.

What about the microsomal CLint at 1 μM [3] of the same molecule?
Its microsomal CLint at 1 μM is less than 11.9 µL/min/mg.

And the “reduction in parasite burden, bone marrow, 5 days” value (“reduction … bone marrow, 5 days” below) (L. infantum; 25 mg/kg BID p.o. for 5 days)?
The value was 93.6%.

What about the “reduction in parasite burden, liver, 5 days” value (“reduction … liver, 5 days” below) (L. infantum; 25 mg/kg BID p.o. for 5 days) of the same molecule?
The value was 98.3%.

And the “reduction in parasite burden, spleen, 5 days” value (from here on “reduction … spleen, 5 days”) (L. infantum; 25 mg/kg BID p.o. for 5 days)?
Its value is 98.2%.

What about the “reduction in parasite burden, bone marrow, 10 days” value (L. infantum) of the same molecule?
The value was 99.4%.

What about the “reduction in parasite burden, liver, 10 days” value (L. infantum) of the same molecule?
Its value is 100%.

And the “reduction in parasite burden, spleen, 10 days” value (L. infantum)?
The value was 99.9%.

And the “reduction … bone marrow, 5 days” value (L. infantum; 50 mg/kg BID p.o. for 5 days)?
Its value is 99.0%.

What about the “reduction … liver, 5 days” value (L. infantum; 50 mg/kg BID p.o. for 5 days) of the same molecule?
The value was 99.8%.

And the “reduction … spleen, 5 days” value (L. infantum; 50 mg/kg BID p.o. for 5 days)?
Its value is 99.9%.

And the “reduction in liver parasite burden following 5 days of p.o. dosing BID, L. donovani” value (“reduction … of p.o. dosing BID, L. donovani” below) (L. donovani [4]; 25 mg/kg BID)?
The value was 97.1%.

And the “reduction … of p.o. dosing BID, L. donovani” value (L. donovani [4]; 50 mg/kg BID)?
Its value is 99.7%.

And the “no adverse effect limit” value ([5]; male and female Sprague-Dawley rats)?
The value was 50 mg/kg/day.

With Cc1c(-c2ccccn2)coc1C(=O)Nc1ccc2c(c1)B(O)OC2 [Compound 28, N-(1-Hydroxy-1,3-dihydrobenzo[c][1,2]oxaborol-6-yl)-3-methyl-4-(pyridin-2-yl)furan-2-carboxamide] as the molecule, how does the EC50 (L. donovani [1]; [8]) read?
The EC50 was 0.4 µM.

And the CC50 at 72 h (PMM cytotoxicity assay; [7])?
The CC50 at 72 h was 49 µM.

And the CC50 at 3 days (PMM cytotoxicity assay; [8])?
The CC50 at 3 days was 54 µM.

What about the CC50 at 72 h (MRC5 cytotoxicity assay) of the same molecule?
Its CC50 at 72 h is 18 µM.

What about the microsomal CLint at 1 μM [2] of the same molecule?
The microsomal CLint at 1 μM was less than 11.9 µL/min/mg.

What about the microsomal CLint at 2 h, 1 µM [3] of the same molecule?
Its microsomal CLint at 2 h, 1 µM is 40 µL/min/mg.

And the “reduction … bone marrow, 5 days” value (L. infantum; 25 mg/kg BID p.o. for 5 days)?
Its value is 95.7%.

What about the “reduction … liver, 5 days” value (L. infantum; 25 mg/kg BID p.o. for 5 days) of the same molecule?
Its value is 98.9%.

And the “reduction … spleen, 5 days” value (L. infantum; 25 mg/kg BID p.o. for 5 days)?
Its value is 97.8%.

And the “reduction in parasite burden, bone marrow, 10 days” value (L. infantum)?
The value was 84%.

And the “reduction in parasite burden, liver, 10 days” value (L. infantum)?
Its value is 99.4%.

And the “reduction in parasite burden, spleen, 10 days” value (L. infantum)?
The value was 96.9%.

What about the “reduction … bone marrow, 5 days” value (L. infantum; 50 mg/kg BID p.o. for 5 days) of the same molecule?
The value was 99.1%.

What about the “reduction … liver, 5 days” value (L. infantum; 50 mg/kg BID p.o. for 5 days) of the same molecule?
The value was 99.9%.

And the “reduction … spleen, 5 days” value (L. infantum; 50 mg/kg BID p.o. for 5 days)?
Its value is 99.9%.

What about the “reduction … of p.o. dosing BID, L. donovani” value (L. donovani [4]; 25 mg/kg BID) of the same molecule?
Its value is 97.5%.

What about the “reduction … of p.o. dosing BID, L. donovani” value (L. donovani [4]; 50 mg/kg BID) of the same molecule?
The value was 99.5%.

What about the toxicity finding ([5]; rats, daily dosing of 25 mg/kg) of the same molecule?
Its toxicity finding is “significant multiorgan toxicity”.
